Results on two compounds are retold here after PubChem BioAssay AID488889 (Sanford-Burnham Center for Chemical Genomics, 2010).

For this assay, the target named is Tyrosine-protein phosphatase non-receptor type 7 (Homo sapiens) (UniProt P35236). Nature of the assay: HePTP (PTPN7) phosphatase inhibitor potency, SAR follow-up, biochemical, set 3 (AID 488889). The settings on record: recombinant HePTP phosphatase activity assay.

SMILES strings stand for the structures. Where only a bound is given, the exact number is not on record here.

Tyrosine-protein phosphatase non-receptor type 7 (Homo sapiens), sequence (P35236 whole entry, looked up): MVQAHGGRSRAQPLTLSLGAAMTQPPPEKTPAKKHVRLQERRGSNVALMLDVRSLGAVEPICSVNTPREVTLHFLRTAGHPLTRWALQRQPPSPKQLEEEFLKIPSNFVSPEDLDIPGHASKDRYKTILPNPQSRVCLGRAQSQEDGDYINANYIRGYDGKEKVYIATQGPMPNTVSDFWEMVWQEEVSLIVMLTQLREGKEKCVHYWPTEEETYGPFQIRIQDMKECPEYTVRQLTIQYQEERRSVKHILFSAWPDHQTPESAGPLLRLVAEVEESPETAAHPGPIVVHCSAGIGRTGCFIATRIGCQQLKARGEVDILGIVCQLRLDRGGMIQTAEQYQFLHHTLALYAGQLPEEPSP

As for `CCOC(=O)COc1ccc(/C=N/NC(=O)c2ccc(-c3csc(Nc4ccc(Cl)cc4)n3)cc2)cc1`, the IC50 is 10.2 µM.

Take `O=C(O)COc1ccc(/C=N/NC(=O)c2ccc(-c3csc(Nc4ccc(Cl)cc4)n3)cc2)cc1`: the IC50 is less than 0.195 µM.
